Results: patent publication US20060194819A1, “Activation specific inhibitors of nf-kb and method of treating inflammatory processes in cardio-vascular diseases” (PROCORDE GMBH, priority 2003, published 2006)

Key:
IKK-complex = molecular target: T1, IKK-complex (Homo sapiens, UniProt O14920+O15111+Q9Y6K9); assay: In vitro/cell free kinase assay: IKK-complex immunoprecipitated from TNF alpha stimulated HeLa cells, drugs added afterwards, alpha screen; format: biochemical
T1 construct: IKK-complex was immunoprecipitated with anti-NEMO-antibody; endogenous in cells; host or cells: HeLa
Method: (§1) In vitro/cell free kinase assay protocol: HeLa cells were maintained in Dulbecco's modified Eagle's medium (Invitrogen) supplemented with 10% fetal bovine serum, 2 mM L-glutamine, penicillin (50 units/ml) and streptomycin (50 μg/ml). 24 h before treatment with TNF alpha HeLa cells were plated at a density of 1×10^7 per well in 175-mm cell culture dishes to 90% confluences.
The cells were stimulated with 20 ng/ml TNF alpha (Roche) without drugs. After 7 min the cells were washed twice with ice cold PBS followed by scraping and transferring into a 1.5 ml micro centrifuge tube. […] 6.6 μl of detection-buffer (20 mM Hepes pH 7.5, 100 mM NaCl, 1% Tween, 0.1 mM BSA, 50 μg/ml Protein A-Acceptor beads, 250 μg/ml Streptavidin-Donor beads (both Perkin-Elmer), 4 nM anti-phospho-IKBα-antibody (Santa Cruz Biotechnology) was dispensed to each well. After incubation for 1.5 h the plate was measured by alpha screen reader (Perkin Elmer).

[1] = test system: I KappaB alpha phosphorylation; assay: P-IkBalpha detection in Western blot of HeLa cell lysates after TNF alpha stimulation; format: cell-based; details: HeLa cells, 10 and 100 μM
Method: as §1, with “P-IkBα Detektion in Western-Blot Protocol:” for “In vitro/cell free kinase assay protocol:”, “different compounds” for “TNF alpha”, “5×10^6” for “1×10^7”, “100-mm” for “175-mm”
The cells were incubated with different drugs at the concentration indicated for 1 h, washed twice with PBS and stimulated with 20 ng/ml TNF alpha (Roche). After 7 min the cells were washed twice with ice cold PBS followed by scraping and transferring into a 1.5 ml micro centrifuge tube. After centrifugation by 2000 rpm for 2 min by 4° C. the PBS supernatant was removed and 200 μl lysis-buffer (10 mM Hepes, pH 7.9, 0.1% NP40, 10 mM, 300 mM Sucrose, 10 mM KCl, 15 mM MgCl2, 1 mM DTT, 0.5 mM PMSF and antipain, aprotinin, leupeptin each 0.75 μg/ml (Sigma) was added to the pellet. The resuspended pellet was incubated on ice for 5 min and centrifuged at 13000 g for 30 s. 30 μl of the supernatant, cytosolic extract, was diluted with Laemmli-buffer (2% SDS, 2% 2-Mercaptoethanol, 0.01% Bromophenol blue, 8% Glycerine), heated by 60° C. for 10 min and loaded to a 4-20% polyacrylamid gels (BioRad). After electrophoresis the proteins were transferred to a nitrocellulose membrane using the wet blotting technique. First the membrane was blocked with Roti-Block (Roth) and afterwards incubated with monoclonal antibodies against P-IkBalpha (Santa Cruz Biotechnology, used at 1:200 dilution). This incubation was followed by the appropriate horseradish peroxidase-conjugated secondary antibody (Dianova) at 1:10000 dilution. Antibody binding was visualized on x-ray film using the Western blot Chemiluminescent Reagent Detection Kit (Santa Cruz).

IKKα/β binding to NEMO = molecular target: T2, IKKα/β binding to NEMO (Homo sapiens, UniProt O14920+O15111+Q9Y6K9); assay: Degradation of the immunoprecipitated IKK-complex after drug treatment in vitro, Western blot; format: biochemical; details: precipitated IKK-complex incubated 1 h with compound
T2 construct: endogenous in cells; host or cells: HeLa (immunoprecipitate with anti-NEMO antibody on Protein A-Sepharose)
Method: After immuno-precipitation with anti-NEMO antibody (Santa Cruz) as described earlier, the precipitated and washed IKK-complex was incubated with different concentrations of IKK inhibitors in 20 mM HEPES, pH 8.0, 10 mM MgCl2, 100 μM Na3VO4, 20 mM-glycerophosphate, 50 mM NaCl, 2 mM dithiothreitol, 0.5 μM phenylmethylsulfonyl fluoride, antipain, aprotinin, leupeptin 0.75 μg/ml each (Sigma). After 1 h treatment the probe was centrifuged at 16000 g for 1 min the supernatant was removed totally and the protein A pellet was resuspended in 1×Laemmli-buffer buffer (2% SDS, 2% 2-Mercaptoethanol, 0.01% Bromophenol blue, 8% Glycerine), heated by 60° C. for 10 min and loaded to a 4-20% polyacrylamid gels (BioRad). After electrophoresis the proteins were transferred to a nitrocellulose membrane using the wet blotting technique. First the membrane was blocked with Roti-Block (Roth) and afterwards incubated with monoclonal antibodies against IKKα (Santa Cruz Biotechnology, used at 1:200 dilution). This incubation was followed by the appropriate horseradish peroxidase-conjugated secondary antibody (Dianova) at 1:10000 dilution. Antibody binding was visualized on x-ray film using the Western blot Chemiluminescent Reagent Detection Kit (Santa Cruz). The x-ray film was scanned and the results were analysed by densitometry by the software AIDA.

[2] = test system: systemic TNF alpha release; assay: LPS induced systemic inflammation in rats, serum TNF alpha by ELISA; format: in vivo; details: compound 1 μg/g IV pre-treatment, LPS 0.33 μg/g IV
Method: Systemic inflammatory response in rats was induced by lipopolysaccharide (LPS) shock (IV administration of LPS 0.33 μg/g). Inflammatory and inhibition of inflammation by IV administration of compound 56 (1 μg/g) to rats was determined by TNF alphaquantification in […] serum. TNF alpha was detected with an ELISA kit (Pierce) according to the manufacturer's instructions.

T1 sequence (O14920 whole entry): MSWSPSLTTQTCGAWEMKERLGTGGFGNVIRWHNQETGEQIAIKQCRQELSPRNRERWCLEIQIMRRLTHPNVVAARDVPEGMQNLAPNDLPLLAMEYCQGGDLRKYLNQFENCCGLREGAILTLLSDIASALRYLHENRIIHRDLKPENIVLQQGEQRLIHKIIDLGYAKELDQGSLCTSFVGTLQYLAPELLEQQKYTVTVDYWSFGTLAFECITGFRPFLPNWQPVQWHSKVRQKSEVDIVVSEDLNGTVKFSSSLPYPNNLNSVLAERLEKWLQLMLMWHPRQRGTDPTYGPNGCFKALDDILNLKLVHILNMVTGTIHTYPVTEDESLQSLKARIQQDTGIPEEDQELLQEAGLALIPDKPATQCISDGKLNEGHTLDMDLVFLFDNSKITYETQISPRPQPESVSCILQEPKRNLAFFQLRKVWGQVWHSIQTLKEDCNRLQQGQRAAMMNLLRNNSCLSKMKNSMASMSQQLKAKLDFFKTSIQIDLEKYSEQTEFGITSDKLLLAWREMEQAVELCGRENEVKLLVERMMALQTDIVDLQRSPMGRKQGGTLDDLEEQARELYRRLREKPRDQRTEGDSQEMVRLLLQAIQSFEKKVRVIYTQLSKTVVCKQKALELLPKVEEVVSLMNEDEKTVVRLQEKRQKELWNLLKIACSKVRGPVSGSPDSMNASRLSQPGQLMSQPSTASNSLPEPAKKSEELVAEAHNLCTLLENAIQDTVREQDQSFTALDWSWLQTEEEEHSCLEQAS
T1 sequence (O15111 whole entry): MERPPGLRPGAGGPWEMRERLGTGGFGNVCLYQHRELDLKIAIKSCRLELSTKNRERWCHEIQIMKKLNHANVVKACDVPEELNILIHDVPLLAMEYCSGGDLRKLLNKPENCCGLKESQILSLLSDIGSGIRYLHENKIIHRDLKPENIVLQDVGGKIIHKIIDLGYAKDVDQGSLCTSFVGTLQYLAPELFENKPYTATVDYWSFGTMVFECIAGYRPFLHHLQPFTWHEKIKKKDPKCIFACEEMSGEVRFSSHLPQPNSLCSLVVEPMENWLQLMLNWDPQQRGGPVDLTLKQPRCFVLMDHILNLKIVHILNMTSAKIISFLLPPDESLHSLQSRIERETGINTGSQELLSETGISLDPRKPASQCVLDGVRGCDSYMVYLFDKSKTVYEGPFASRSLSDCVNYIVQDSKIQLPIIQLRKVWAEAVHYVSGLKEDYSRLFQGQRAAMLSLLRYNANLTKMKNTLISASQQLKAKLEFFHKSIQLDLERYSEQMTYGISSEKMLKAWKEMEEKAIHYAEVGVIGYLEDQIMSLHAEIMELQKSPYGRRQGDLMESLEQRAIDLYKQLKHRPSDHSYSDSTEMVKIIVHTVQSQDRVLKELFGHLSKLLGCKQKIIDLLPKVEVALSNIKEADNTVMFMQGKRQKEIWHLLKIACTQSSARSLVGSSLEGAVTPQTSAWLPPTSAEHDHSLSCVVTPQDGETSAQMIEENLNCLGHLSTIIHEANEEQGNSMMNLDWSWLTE
T1 sequence (Q9Y6K9 whole entry): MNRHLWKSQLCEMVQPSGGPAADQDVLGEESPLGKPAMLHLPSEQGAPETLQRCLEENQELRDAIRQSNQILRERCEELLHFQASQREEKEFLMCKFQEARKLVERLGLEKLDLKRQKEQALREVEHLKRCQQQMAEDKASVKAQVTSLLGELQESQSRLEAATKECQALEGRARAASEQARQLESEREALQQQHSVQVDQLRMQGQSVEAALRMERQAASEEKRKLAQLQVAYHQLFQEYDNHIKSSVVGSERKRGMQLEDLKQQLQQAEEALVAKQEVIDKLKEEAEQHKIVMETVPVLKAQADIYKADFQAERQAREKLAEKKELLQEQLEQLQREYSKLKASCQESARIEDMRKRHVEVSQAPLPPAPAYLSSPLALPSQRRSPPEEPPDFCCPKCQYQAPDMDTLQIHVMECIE
T2 sequence (Q9Y6K9 whole entry): as above
T2 sequence (O15111 whole entry): as the sequence (O15111 whole entry) above
T2 sequence (O14920 whole entry): as the sequence (O14920 whole entry) above

potency in the inhibition of IKK activity compared to COM 73 (IKK-complex; cell-free assay): significantly higher
inhibition of IKK activity in cell-free assay (IKK-complex; increasing concentrations on isolated IKK complex): dose-dependently inhibited
disruption of the IKK complex (NEMO binding to IKK-alpha/beta) in vitro (IKKα/β binding to NEMO): dose-dependently disrupted
Compound: CCOC(=O)C1=C(C)N=c2s/c(=C/c3ccc(-c4cccc(C(=O)O)c4)o3)c(=O)n2C1c1ccc(Cl)cc1 (centres unmarked) [COM 56, 2-[5-(3-Carboxyphenyl)-furan-2-ylmethylene]-5-(4-chlorophenyl)-7-methyl-3-oxo-2,3-dihydro-5H-thiazolo[3,2-a]pyrimidine-6-carboxylic acid ethyl ester]
effect on IkappaB phosphorylation (Western blot), comparison of COM 73 and COM 54 family [1]: concentration-dependently inhibited
TNF alpha concentrations in rat serum after LPS [2]: significantly inhibited
